From publication PMC4919791, “Effect of curcumin analogs onα-synuclein aggregation and cytotoxicity” (Scientific Reports, 2016)

What was measured:
α-Syn oligomers [1] = molecular target: T1, α-Syn oligomers (Homo sapiens, UniProt P37840); assay: MTT assay of α-Syn oligomers pre-incubated with curcumin analogs; format: cell-based; settings: 10 μM α-Syn + 5 μM analog, 30 min RT; SH-SY5Y cells
T1 construct: made in house; host or cells: Escherichia coli BL21
Description: (§1) It has been shown that α-Syn mutants that form oligomers preferentially are more toxic and kill dopaminergic neurons in animal models as compared to fibril forming mutants. Therefore, compounds that effectively reduce the toxicity of oligomers could be beneficial for the treatment of PD. In the present study, we tested the effect of curcumin and its analogs on the toxicity, hydrophobic exposure and morphology of α-Syn oligomers isolated using size exclusion chromatography (SEC). The toxicity of α-Syn oligomers in presence and absence of curcumin/analogs were initially tested using MTT assay. […] To further validate the effectiveness of C6 to reduce the cytotoxicity of α-Syn oligomers, we also performed LDH cytotoxicity assay and Calcein-AM/Ethidium homodimer-1 staining. […] As previously it has been proposed that curcumin reduces the oligomers toxicity by altering their exposed hydrophobic surface, we also measured the hydrophobic surface exposure of preformed α-Syn oligomers incubated with curcumin and its analogs.
For isolation of α-Syn oligomers, we used previously established protocol. Briefly, lyophilized α-Syn powder was dissolved in MES buffer, pH 6.0, 0.01% NaN3, at a concentration of 50 mg/ml. The dissolved protein was then centrifuged at 14,000 × g for 30 min at 4 °C using a table top microcentrifuge (HITACHI, himac CT15RE, Japan). […]

[2] = Stability of curcumin analogs by time-dependent intrinsic fluorescence; format: physicochemical; settings: 20 mM MES buffer pH 6.0, 0.01% NaN3, 37 °C
Protocol: 1μl of this DMSO-stock solution was transferred to 2 ml microfuge tube and 1 ml of 20 mM MES buffer (pH 6.0, 0.01% NaN3) was added to it and mixed immediately by vortexing. These solutions were incubated at 37 °C and their respective fluorescence was taken at certain time intervals. The fluorescence was monitored by placing the 200 μl of the incubated solution in 0.1 cm path-length quartz cuvette (Hellma, Forest Hills, NY) and the spectra were acquired by using FluoroMax-4 spectrofluorometer (HORIBA JobinYvon) instrument with excitation and emission slit widths of 5 nm and 10 nm respectively. The fluorescence intensity maxima for each sample were plotted against time of incubation and fitted in exponential decay 1 in the Origin 8.0 software according to manufacture’s protocol (Fig. 2A).

preformed α-Syn fibrils [3] = molecular target: T2, preformed α-Syn fibrils (Homo sapiens, UniProt P37840); assay: LDH cytotoxicity assay of preformed α-Syn fibrils incubated with curcumin analogs; format: cell-based; settings: fibrils incubated with analog 48 h; SH-SY5Y cells
T2 construct: made in house; host or cells: Escherichia coli BL21
Protocol: (§2) The concentration of the fibrils was determined by subtraction of supernatant concentration from the original concentration of α-Syn kept for fibrillation.
(§3) The percent LDH release was plotted as difference in the absorbance value of 490 nm and 690 nm, considering 100% release for the TritonX-100 treated cells.

preformed α-Syn fibrils [4] = molecular target: T2, preformed α-Syn fibrils; assay: Nile red binding assay on preformed α-Syn fibrils; format: biochemical; settings: fibrils incubated with analog 48 h
Protocol: (§4) Stock solution of NR was prepared in DMSO (1 mM). […] Similar experimental protocol was used for NR binding to oligomers. FluoroMax-4 spectrofluorometer (HORIBA JobinYvon) was used with excitation and emission slit widths of 5 nm. The maximum NR fluorescence obtained at ~630 nm was used for plotting bar diagrams.

[5] = molecular target: T3, preformed α-Syn oligomers (Homo sapiens, UniProt P37840); assay: Nile red binding assay on α-Syn oligomers; format: biochemical; settings: compared to α-Syn oligomers alone
T3 construct: made in house; host or cells: Escherichia coli BL21
Protocol: Therefore, compounds that effectively reduce the toxicity of oligomers could be beneficial for the treatment of PD.
as §4

α-Syn = molecular target: T4, α-Syn (Homo sapiens, UniProt P37840); assay: TEM of α-Syn aggregates formed in presence of analogs; format: biochemical
T4 construct: made in house; host or cells: Escherichia coli BL21
Protocol: Subsequently, we examined the effect of these analogs on α-Syn oligomerization by time dependent static light scattering experiment. […] After aggregation, TEM study was done to determine the effects of these analogs on the morphology of the resultant aggregates.
The samples were then washed thrice with autoclaved MQ. The samples were then stained with 10 μl of uranyl formate 1% (w/v) and incubated in dark for 10 min. The EM image of each sample was acquired at 120 kV with magnifications in the range of 26,000X and 43,000X using a transmission electron microscope (TECNAI12 D312 FEI, Netherlands).

[6] = molecular target: T5, preformed α-Syn amyloid fibrils (Homo sapiens, UniProt P37840); assay: MTT assay of preformed α-Syn fibrils incubated with curcumin analogs; format: cell-based; settings: fibrils incubated with analog 48 h at 37 °C; SH-SY5Y cells
T5 construct: made in house; host or cells: Escherichia coli BL21
Protocol: as §2

α-Syn fibrils [7] = molecular target: T6, α-Syn fibrils (Homo sapiens, UniProt P37840); assay: LDH cytotoxicity assay of α-Syn fibrils formed in presence of curcumin analogs; format: cell-based; settings: SH-SY5Y cells
T6 construct: made in house; host or cells: Escherichia coli BL21
Description: as §3

preformed α-Syn fibrils [8] = molecular target: T2, preformed α-Syn fibrils; assay: CD spectroscopy of preformed α-Syn fibrils with analogs; format: biochemical; settings: 0 h and 48 h of incubation
Protocol: Further, the effect of curcumin analogs on the secondary structure of protein in preformed amyloid fibrils was studied by circular dichroism (CD) spectroscopy at 0 h and after 48 h of incubation. […] To further validate this, Fourier transform infrared spectroscopy (FTIR) was also performed with these samples, where spectra were recorded from 1500 to 1800 cm^−1.The region characteristic of protein secondary structures (1600–1700 cm^−1) was deconvoluted and the peaks were assigned according to published reports. FTIR spectra in the 1600–1700 cm^−1 region of preformed α-Syn fibrils in absence and presence of curcumin and its analogs are presented in Figs 4B and S4 and their percentage of secondary structures are shown in Table-S1.
20 μl of protein solution from 80 μM stock was diluted to 200 μl in 20 mM MES buffer, pH 6.0 with 0.01% NaN3 such that final protein concentration becomes 8 μM. The protein solution was then placed into a quartz cell (Hellma, Forest Hills, NY) of 0.1 cm path-length. Spectra were recorded using JASCO-810 instrument at 25 °C. Spectra acquisition was over the wavelength range of 198–260 nm with the scan speed of 100 nm/min, bandwidth 1 nm, data pitch 1 nm and response time of 1 sec. Processing of raw data was done by subtraction of buffer spectra and subsequently smoothing according to the manufacturer’s instructions.

α-Syn oligomers [9] = molecular target: T1, α-Syn oligomers; assay: TEM of α-Syn oligomers with C1/C6; format: biochemical
Description: as §1
5 μl of various species of α-Syn (50 μM) incubated in absence and presence of curcumin and its analogs were spotted on carbon coated formavar grid and air dried for 10 min. The samples were then washed thrice with autoclaved MQ. The samples were then stained with 10 μl of uranyl formate 1% (w/v) and incubated in dark for 10 min. […]

α-Syn oligomers [10] = molecular target: T1, α-Syn oligomers; assay: LDH cytotoxicity assay of α-Syn oligomers with C1/C6; format: cell-based; settings: oligomers incubated 30 minutes with compound; SH-SY5Y cells
Description: as §1
10 μM of α-Syn oligomers/fibrils incubated with and without 5 μM curcumin/analogs were added to SH-SY5Y cells (10,000 cells/well) in 96 well plate. […] The percent LDH release was plotted as difference in the absorbance value of 490 nm and 690 nm, considering 100% release for the TritonX-100 treated cells.

preformed α-Syn fibrils [11] = molecular target: T2, preformed α-Syn fibrils; assay: Calcein-AM/EthD-1 staining, preformed α-Syn fibrils with analogs; format: cell-based; settings: SH-SY5Y cells
Protocol: Previously it has been shown that curcumin decreases the toxicity of α-Syn amyloid fibrils by reducing the exposed hydrophobic surfaces. To delineate whether curcumin analogs can decrease the toxicity of preformed α-Syn fibrils, we performed cell viability assay. For this, 10-days incubated α-Syn solution was centrifuged (fibril formation was confirmed by electron microscopy (EM)) and the pelleted fibrils were then re-dissolved in same volume of 20 mM MES buffer (pH 6.0, 0.01% NaN3). The concentration of the fibrils was determined by subtraction of supernatant concentration from the original concentration of α-Syn kept for fibrillation. […] After incubation, we measured the effect of curcumin analogs on the toxicity of preformed α-Syn amyloid fibrils by MTT reduction assay on SH-SY5Y cells. […]
(§5) For this assay, SH-SY5Y cells were seeded in 96 well plate and incubated with identical concentrations of oligomers/fibrils (as used in MTT assay) in absence and presence of curcumin and its analogs for 36 h in 5% CO2 incubator at 37 °C. […] Calcein-AM/Ethidium homodimer-1 signal was then checked and imaged with an inverted fluorescence microscope (Leica DMi8). […] The free calcein emits strong fluorescence signal at ~535 nm, which could be easily observed in the green channel of a microscope. […]

α-Syn fibrils [12] = molecular target: T6, α-Syn fibrils; assay: MTT assay of α-Syn fibrils formed in presence of curcumin analogs; format: cell-based; settings: 10 μM α-Syn fibril, 36 h, SH-SY5Y
Protocol: Next, we measured the effect of α-Syn fibrils formed in presence and absence of curcumin analogs on the viability of SH-SY5Y neuronal cell line by MTT reduction assay. SH-SY5Y cells were incubated with 10 μM α-Syn fibril formed in presence of various curcumin analogs for 36 h. […] However, the extent of decrease in toxicity was different for different analogs. […] The calcein-AM/ethidium homodimer-1 staining also further corroborated the results obtained from MTT and LDH assay (Fig. 8C).

α-Syn oligomers [13] = molecular target: T1, α-Syn oligomers; assay: Calcein-AM/EthD-1 staining, α-Syn oligomers with C1/C6; format: cell-based; settings: SH-SY5Y cells
Description: It has been shown that α-Syn mutants that form oligomers preferentially are more toxic and kill dopaminergic neurons in animal models as compared to fibril forming mutants. Therefore, compounds that effectively reduce the toxicity of oligomers could be beneficial for the treatment of PD. In the present study, we tested the effect of curcumin and its analogs on the toxicity, hydrophobic exposure and morphology of α-Syn oligomers isolated using size exclusion chromatography (SEC). The toxicity of α-Syn oligomers in presence and absence of curcumin/analogs were initially tested using MTT assay. […] As previously it has been proposed that curcumin reduces the oligomers toxicity by altering their exposed hydrophobic surface, we also measured the hydrophobic surface exposure of preformed α-Syn oligomers incubated with curcumin and its analogs.
as §5

| Structure (SMILES) | effect on toxicity of α-Syn oligomers, MTT (α-Syn oligomers [1]) | relative stability compared with curcumin (slope of normalized fluorescence versus time) [2] | effect on cell death by preformed α-Syn fibrils, LDH (preformed α-Syn fibrils [3]) | Nile red fluorescence of preformed α-Syn fibrils (exposed hydrophobic surface) (preformed α-Syn fibrils [4]) | Nile red fluorescence of α-Syn oligomers (exposed hydrophobic surface) [5] | average fibril thickness of fibrils formed in presence of analog (α-Syn) | effect on toxicity of preformed α-Syn fibrils, MTT [6] | toxicity of α-Syn fibrils formed in presence of analog, LDH (α-Syn fibrils [7]) | secondary structure of preformed α-Syn fibrils by CD (preformed α-Syn fibrils [8]) | morphology of α-Syn oligomers (TEM) (α-Syn oligomers [9]) | LDH release with α-Syn oligomers (α-Syn oligomers [10]) | Calcein-AM/EthD-1 staining with preformed α-Syn fibrils (preformed α-Syn fibrils [11]) | toxicity of α-Syn fibrils formed in presence of analog, MTT (α-Syn fibrils [12]) | ethidium homodimer staining with α-Syn oligomers (α-Syn oligomers [13]) |
| --- | --- | --- | --- | --- | --- | --- | --- | --- | --- | --- | --- | --- | --- | --- |
| COc1ccc(/C=C/C(=O)CC(=O)/C=C/c2ccc(OC)c(OC)c2)cc1OC [C2] | slight reduction in the toxicity | less stable than curcumin | decrease in cell death | less NR fluorescence for fibrils as compared to curcumin | increase in NR fluorescence | more in comparison to fibrils formed in presence of other analogs |  |  |  |  |  |  |  |  |
| COc1cc(/C=C/C(=O)CC(=O)/C=C/c2ccc(O)c(OC)c2)ccc1O [C1, Curcumin (diferuloylmethane), reference compound] |  |  | decrease in cell death |  |  |  | reduction in toxicity | less toxicity to cells | remains unaltered | significantly altered their morphology | reduced LDH release | less nuclear staining by EthD-1 | less toxicity to cells | less ethidium homodimer staining |
